Measured values published in article PMC10307063, “Bioprospection of Selected Plant Secondary Metabolites as Modulators of the Proteolytic Activity of Plasmodium falciparum Plasmepsin V” (BioMed Research International, 2023).
Where a SMILES comes first, the peptide text is derived from it. [ ]: non-standard residue; d: D form. The star is where a group is joined. Sta = CC(C)C[C@H](N)[C@@H](O)CC(=O)O; Isovaleryl = CC(C)CC(=O)*

What was measured:
[1] = molecular target: T1, Plasmodium falciparum plasmepsin V (PfPMV) (Plasmodium falciparum, UniProt Q8I6Z5); assay: casein proteolysis assay with recombinant enzyme (A280), Lineweaver-Burk kinetics; assay type: biochemical
T1 construct: gene PMV; Trx-PfPMVp37

[2] = molecular target: T1, Plasmodium falciparum plasmepsin V (PfPMV); assay: casein proteolysis assay with recombinant enzyme (A280); assay type: biochemical

T1 sequence (Q8I6Z5 whole entry): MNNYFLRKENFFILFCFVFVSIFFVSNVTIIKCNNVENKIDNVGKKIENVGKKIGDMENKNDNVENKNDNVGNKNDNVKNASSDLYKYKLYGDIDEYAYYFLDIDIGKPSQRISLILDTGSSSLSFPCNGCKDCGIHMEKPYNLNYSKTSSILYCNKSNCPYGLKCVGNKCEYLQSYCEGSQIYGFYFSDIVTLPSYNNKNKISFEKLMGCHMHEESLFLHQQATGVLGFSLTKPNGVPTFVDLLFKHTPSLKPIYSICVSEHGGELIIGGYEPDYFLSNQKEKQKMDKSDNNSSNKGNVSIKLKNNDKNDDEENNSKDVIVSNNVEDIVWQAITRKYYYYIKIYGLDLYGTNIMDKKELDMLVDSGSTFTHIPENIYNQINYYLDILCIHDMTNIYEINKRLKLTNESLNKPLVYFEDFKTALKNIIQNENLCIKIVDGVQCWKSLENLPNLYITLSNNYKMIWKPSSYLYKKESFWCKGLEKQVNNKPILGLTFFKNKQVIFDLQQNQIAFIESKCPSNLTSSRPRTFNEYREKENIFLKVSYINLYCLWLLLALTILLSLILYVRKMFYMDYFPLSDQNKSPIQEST

| SMILES | IC50 [1] | IC50 [2] |
| --- | --- | --- |
| O=c1c(O)c(-c2ccc(O)c(O)c2)oc2cc(O)cc(O)c12 [quercetin] | 53.1 µM |  |
| CC(C)=CC[C@@H](O)C1=CC(=O)c2c(O)ccc(O)c2C1=O [shikonin] | 43.3 µM |  |
| O=c1c(O)c(-c2ccc(O)cc2)oc2cc(O)cc(O)c12 [kaempferol] | 22.4 µM |  |
| CC(C)CC(=O)N[C@H](C(=O)N[C@H](C(=O)N[C@@H](CC(C)C)[C@@H](O)CC(=O)N[C@@H](C)C(=O)N[C@@H](CC(C)C)[C@@H](O)CC(=O)O)C(C)C)C(C)C [pepstatin] (Isovaleryl-VV[Sta]A[Sta]-OH) |  | 62.6 µM |
